Reference: patent US11691981B2, “Heterocyclic compounds, preparation methods therefor, and methods of uses thereof” (INVENTISBIO CO., LTD., priority 2019, dated 2023)

Key:
TGFβR1 = TGFβR1 (Homo sapiens (Human), UniProt P36897); assay: TGFβR1 kinase inhibition assay (ADP-Glo Kinase Assay); format: biochemical; details: 40 nM TGFβR1 in 2x enzyme mix, 5.4 μM ATP in 2x substrate mix, 120 min RT
Description: TGFβR1 kinase assay was performed according to the instruction manual of the ADP-Glo™ Kinase Assay kit provided by Promega. Prepare 1× Kinase buffer (50 mM Tris pH7.5, 0.1% BSA, 10 mM MgCl2, 1 mM DTT). Before activation reaction was started, Compounds were dissolved in DMSO and make 100× solution with 3-fold serial dilution for a total of 10 concentrations. Transfer 50 nL compounds to 384-well plate according to plate map using the automated liquid handler. […] Add 5 μL ADP-Glo Reagent to terminate the kinase reaction and deplete the remaining ATP, incubate at RT for 60 minutes. Add 10 μL Kinase Detection Reagent to convert ADP to ATP and allow the newly synthesized ATP to be measured using a luciferin reaction, incubate at RT for 30 minutes. Collect luminescence data with Envision.

TGFβR2 = TGFβR2 (Homo sapiens (Human), UniProt P37173); assay: TGFβR2 kinase inhibition assay (ADP-Glo); format: biochemical; details: 10 uM ATP, 120 min room temperature
TGFβR2, sequence (P37173 23-567): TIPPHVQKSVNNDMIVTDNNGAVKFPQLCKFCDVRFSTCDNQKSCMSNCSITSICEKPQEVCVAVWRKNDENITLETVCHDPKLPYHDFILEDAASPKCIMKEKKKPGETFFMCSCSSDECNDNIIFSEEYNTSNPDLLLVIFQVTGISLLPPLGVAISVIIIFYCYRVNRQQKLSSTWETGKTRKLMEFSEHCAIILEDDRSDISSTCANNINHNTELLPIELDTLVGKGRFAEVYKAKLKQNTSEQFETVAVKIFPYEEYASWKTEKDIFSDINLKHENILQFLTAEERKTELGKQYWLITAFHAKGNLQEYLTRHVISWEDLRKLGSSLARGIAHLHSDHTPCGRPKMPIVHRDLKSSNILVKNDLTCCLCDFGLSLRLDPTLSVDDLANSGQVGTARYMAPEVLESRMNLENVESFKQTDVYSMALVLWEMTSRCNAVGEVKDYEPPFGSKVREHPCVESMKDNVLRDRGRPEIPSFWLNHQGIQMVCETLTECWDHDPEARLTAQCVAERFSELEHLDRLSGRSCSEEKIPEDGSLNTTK
Description: The TGFβR2 enzyme reaction was carried out as follows: 50 nL of compound in DMSO (or DMSO controls) were stamped into 384 white, low-volume plates. 2.5 μL of 2× enzyme solution (final enzyme concentration was 3 ng/uL in 40 mMTris, 7.5; 20 mM MgCl2; 0.1 mg/mL BSA; 1 mM DTT) was dispensed into assay plate. The plate was then sealed and spun at 1000 rpm for 30 s and incubated at room temperature for 10 min. Followed by addition of 2.5 μL of 2× substrate solution that contains both ATP (to make a final concentration of 10 uM) and TGFβR2 substrate (final concentration of 0.2 ug/uL). The plate was then sealed and spun at 1000 rpm for 30 s and the reaction was then incubated at room temperature for 120 min. After that 5 μL ADP-Glo™ Reagent was added into the assay wells to stop the reaction and deplete unconsumed ATP for 40 min at room temperature; then, 10 μL of Detection Reagent was added into the assay wells, followed by 40 min incubation to develop luminescence. The luminescence signal was then collected on Envision 2104 plate reader.

TGFβR1, sequence (P36897 34-503): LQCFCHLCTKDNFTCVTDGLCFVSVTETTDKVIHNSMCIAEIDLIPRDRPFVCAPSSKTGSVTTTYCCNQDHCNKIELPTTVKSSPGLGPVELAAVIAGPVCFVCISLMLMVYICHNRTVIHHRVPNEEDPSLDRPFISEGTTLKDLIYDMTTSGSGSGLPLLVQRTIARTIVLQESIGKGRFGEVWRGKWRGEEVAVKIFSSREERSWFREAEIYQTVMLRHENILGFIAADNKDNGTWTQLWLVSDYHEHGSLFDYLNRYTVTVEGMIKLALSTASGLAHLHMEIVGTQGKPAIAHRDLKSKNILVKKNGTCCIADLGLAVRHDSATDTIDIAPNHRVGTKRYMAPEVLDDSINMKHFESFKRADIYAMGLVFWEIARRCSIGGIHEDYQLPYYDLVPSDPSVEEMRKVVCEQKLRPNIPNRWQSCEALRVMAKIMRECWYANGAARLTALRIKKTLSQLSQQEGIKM

Row | IC50 (TGFβR1) | IC50 (TGFβR2) | Compound
1 | 60 nM |  | Cc1cc(Oc2ccnc(Nc3ccnc(C(C)(C)O)c3)c2)n(C2CCOCC2)n1 [Compound 4]
2 | 43 nM | > 100000 nM | CC(C)(O)c1cc(Nc2cc(Oc3cc(C4CC4)nn3C3CC3)ccn2)ccn1 [Compound 5]
3 | 557 nM | > 100000 nM | CC(C)(O)c1cc(Nc2cc(Oc3cc(C(F)(F)F)nn3C3CC3)ccn2)ccn1 [Compound 7]
4 | 34 nM | 34000 nM | CC(C)(O)c1cc(Nc2cc(Oc3cc(C(F)(F)F)nn3C(C)(C)C)ccn2)ccn1 [Compound 16]
5 | 12 nM | 1000 nM | CC(C)(O)c1cc(Nc2cc(Oc3cc(C(F)(F)F)nn3-c3ccccc3)ccn2)ccn1 [Compound 17]
6 | > 10000 nM |  | C[C@@H]1C[C@@H](n2nc(C3CC3)cc2Oc2ccnc(Nc3ccnc(C(C)(C)O)c3)c2)C[C@H](C)O1 [Compound 18]
7 | 7710 nM |  | C[C@@H]1C[C@H](n2nc(C3CC3)cc2Oc2ccnc(Nc3ccnc(C(C)(C)O)c3)c2)C[C@H](C)O1 [Compound 19]
8 | 48 nM |  | CC(C)(O)c1cc(Nc2cc(Oc3cc(C(F)(F)F)nn3CC3CC3)ccn2)ccn1 [Compound 20]
9 | 37 nM | > 100000 nM | CC(C)(O)c1cc(Nc2cc(Oc3cc(C4CC4)nn3CC(F)(F)F)ccn2)ccn1 [Compound 21]
10 | 54 nM |  | CCn1nc(C(F)(F)F)cc1Oc1ccnc(Nc2ccnc(C(C)(C)O)c2)c1 [Compound 22]
11 | 223 nM |  | CC(C)(O)c1cc(Nc2cc(Oc3cc(C(F)(F)F)nn3C3CNC3)ccn2)ccn1 [Compound 24]
12 | 66 nM |  | CC(C)n1nc(C(F)(F)F)cc1Oc1ccnc(Nc2ccnc(C(C)(C)O)c2)c1 [Compound 25]
13 | 88 nM |  | CC(C)(O)c1cc(Nc2cc(Oc3cc(C(F)(F)F)nn3C3CCNCC3)ccn2)ccn1 [Compound 26]
14 | 58 nM |  | CC(C)(O)c1cc(Nc2cc(Oc3cc(C(F)(F)F)nn3C3CC3)ccn2)ccn1 [Compound 27]
15 | 35 nM | 36000 nM | CC(C)(O)c1cc(Nc2cc(Oc3cc(C4CC4)nn3[C@H]3C[C@H]4CC[C@@H](C3)O4)ccn2)ccn1 [Compound 28]
16 | 19 nM | 89000 nM | CC(C)(O)c1cc(Nc2cc(Oc3cc(C4CC4)nn3[C@@H]3C[C@H]4CC[C@@H](C3)O4)ccn2)ccn1 [Compound 29]

Row | IC50 (TGFβR1) | IC50 (TGFβR2) | Compound
17 | 89 nM |  | C[C@@H]1C[C@@H](n2nc(C(F)(F)F)cc2Oc2ccnc(Nc3ccnc(C(C)(C)O)c3)c2)C[C@H](C)O1 [Compound 30]
18 | 1040 nM |  | C[C@@H]1C[C@H](n2nc(C(F)(F)F)cc2Oc2ccnc(Nc3ccnc(C(C)(C)O)c3)c2)C[C@H](C)O1 [Compound 31]
19 | 868 nM |  | CC(C)(O)c1cc(Nc2cc(Oc3cc(C(F)(F)F)nn3C3CCNC3)ccn2)ccn1 (centres unmarked) [Compound 32]
20 | 49 nM | > 100000 nM | CC(C)(O)c1cc(Nc2cc(Oc3cc(C(F)(F)F)nn3C3CCCNC3)ccn2)ccn1 (centres unmarked) [Compound 33]
21 | 42 nM | 17000 nM | Cc1ccc(-n2nc(C(F)(F)F)cc2Oc2ccnc(Nc3ccnc(C(C)(C)O)c3)c2)cc1 [Compound 34]
22 | 56 nM |  | CC(C)(O)c1cc(Nc2cc(Oc3cc(C(F)(F)F)nn3-c3cccc(Cl)c3)ccn2)ccn1 [Compound 36]
23 | 283 nM |  | CC(C)(O)c1cc(Nc2cc(Oc3cc(C(F)(F)F)nn3-c3cccnc3)ccn2)ccn1 [Compound 37]
24 | 18 nM | 15000 nM | CC(C)(O)c1cc(Nc2cc(Oc3cc(C(F)(F)F)nn3-c3ccccc3F)ccn2)ccn1 [Compound 38]
25 | 71 nM |  | CC(C)(O)c1cc(Nc2cc(Oc3cc(C(F)(F)F)nn3-c3ccccc3Cl)ccn2)ccn1 [Compound 40]
26 | 263 nM |  | CC(C)(O)c1cc(Nc2cc(Oc3cc(C(F)(F)F)nn3-c3cncnc3)ccn2)ccn1 [Compound 42]
27 | 159 nM |  | CC(C)(O)c1cc(Nc2cc(Oc3cc(C(F)(F)F)nn3-c3ccc(Cl)cc3)ccn2)ccn1 [Compound 43]
28 | 132 nM |  | CC(C)(O)c1cc(Nc2cc(Oc3cc(C(F)(F)F)nn3-c3ccncc3)ccn2)ccn1 [Compound 48]
29 | 32 nM |  | CC(C)(O)c1cc(Nc2cc(Oc3cc(C(F)(F)F)nn3[C@@H]3C[C@H]4CC[C@@H](C3)O4)ccn2)ccn1 [Compound 49]
30 | 113 nM |  | CC(C)(O)c1cc(Nc2cc(Oc3cc(C(F)(F)F)nn3[C@H]3C[C@H]4CC[C@@H](C3)O4)ccn2)ccn1 [Compound 50]
31 | 17 nM |  | C[C@@H]1CC(c2nn(C3CC3)cc2Oc2ccnc(Nc3ccnc(C(C)(C)O)c3)c2)C[C@H](C)O1 (some centres unmarked) [Compound 74]

More lines, now with the values behind:

Row | Compound | IC50 (TGFβR1) | IC50 (TGFβR2)
32 | CC(C)(O)c1cc(Nc2cc(Oc3cc(C4CC4)nn3C3CCOCC3)ccn2)ccn1 [Compound 1] | 61 nM | 
33 | CC(C)(O)c1cc(Nc2cc(Oc3cc(C4CC4)nn3C3CCOCC3)ncn2)ccn1 [Compound 3] | 825 nM | > 100000 nM
34 | CC(C)(O)c1cc(Nc2cc(Oc3cc(C4CC4)nn3C(C)(C)C)ccn2)ccn1 [Compound 6] | 46 nM | 
35 | CC(C)(O)c1cc(Nc2cc(Oc3cc(C(F)F)nn3C3CCOCC3)ccn2)ccn1 [Compound 8] | 173 nM | > 100000 nM
36 | N#Cc1cccc(Nc2cc(Oc3cc(C(F)(F)F)nn3C3CCOCC3)ccn2)c1 [Compound 9] | 163 nM | > 100000 nM
37 | N#Cc1ccc(Nc2cc(Oc3cc(C(F)(F)F)nn3C3CCOCC3)ccn2)cc1 [Compound 10] | 131 nM | > 100000 nM
38 | NS(=O)(=O)c1ccc(Nc2cc(Oc3cc(C4CC4)nn3C3CCOCC3)ccn2)cc1 [Compound 14] | 37 nM | > 100000 nM
39 | CC(C)(C)n1nc(C2CC2)cc1Oc1ccnc(Nc2ccc(S(N)(=O)=O)cc2)c1 [Compound 15] | 94 nM | > 100000 nM
40 | CC(C)(O)c1cc(Nc2cc(Oc3cc(C(F)(F)F)nn3-c3ccc(F)cc3)ccn2)ccn1 [Compound 35] | 86 nM | 
41 | COc1cc(Oc2ccnc(Nc3ccnc(C(C)(C)O)c3)c2)n(C2CCOCC2)n1 [Compound 39] | 126 nM | 
42 | CC(C)(O)c1cc(Nc2cc(Oc3cc(C(F)(F)F)nn3-c3ccc(C#N)cc3)ccn2)ccn1 [Compound 44] | 141 nM | 
43 | CC(C)(O)c1cc(Nc2cc(Oc3cc(C(F)(F)F)nn3-c3c(F)cccc3F)ccn2)ccn1 [Compound 45] | 13 nM | 21000 nM
44 | CC1(C)OC(=N)c2ccc(Nc3cc(Oc4cc(C5CC5)nn4C4CCOCC4)ccn3)cc21 [Compound 46] | 66 nM | 
45 | CC1(C)OC(=O)c2ccc(Nc3cc(Oc4cc(C5CC5)nn4C4CCOCC4)ccn3)cc21 [Compound 47] | 103 nM | 
46 | CC(C)(O)c1cc(Nc2cc(Oc3cc(C(F)(F)F)nn3-c3ccccc3C#N)ccn2)ccn1 [Compound 51] | 55 nM | 
47 | CC(C)(O)c1ccc(Nc2cc(Oc3cc(C(F)(F)F)nn3-c3ccccc3F)ccn2)cn1 [Compound 52] | 21 nM | 16000 nM
48 | CC(C)(O)c1ccc(Nc2cc(Oc3cc(C(F)(F)F)nn3-c3c(F)cccc3F)ccn2)cn1 [Compound 53] | 18 nM | 56000 nM

Row | Compound | IC50 (TGFβR1) | IC50 (TGFβR2)
49 | COc1ccc(Oc2ccnc(Nc3ccnc(C(C)(C)O)c3)c2)c(C2CCOCC2)n1 [Compound 56] | 220 nM | 
50 | CC(C)(O)c1cc(Nc2cc(Oc3ccc(C(F)(F)F)nc3C3CCOCC3)ccn2)ccn1 [Compound 60] | 50 nM | 
51 | CC(C)(O)c1cc(Nc2cc(Oc3ccc(C4CC4)nc3C3CCOCC3)ccn2)ccn1 [Compound 61] | 116 nM | 
52 | Cc1ccc(Oc2ccnc(Nc3ccc(C(C)(C)O)nc3)c2)c(C)n1 [Compound 62] | 29 nM | 
53 | Cc1ccc(Oc2ccnc(Nc3ccnc(C(C)(C)O)c3)c2)c(C(F)(F)F)n1 [Compound 63] | 82 nM | 
54 | COc1ccc(Oc2ccnc(Nc3ccnc(C(C)(C)O)c3)c2)c(C)n1 [Compound 64] | 32 nM | 
55 | Cc1nc(C(F)(F)F)ccc1Oc1ccnc(Nc2ccnc(C(C)(C)O)c2)c1 [Compound 65] | 14 nM | 
56 | Cc1ccc(Oc2ccnc(Nc3ccnc(C(C)(C)O)c3)c2)c(CC(C)C)n1 [Compound 66] | 4 nM | 
57 | CC(C)(O)c1cc(Nc2cc(Sc3cn(C4CC4)nc3C3CCOCC3)ccn2)ccn1 [Compound 70] | 80 nM | 
58 | CC(C)(O)c1cc(Nc2cc(Oc3c(C4CCOCC4)nn4c3CCC4)ccn2)ccn1 [Compound 71] | 25 nM | 
59 | CC(C)(O)c1cc(Nc2cc(Oc3sc(C4CC4)nc3C3CCOCC3)ccn2)ccn1 [Compound 72] | 111 nM | 
60 | NS(=O)(=O)c1ccc(Nc2cc(Oc3cn(C4CC4)nc3C3CCOCC3)ccn2)cc1 [Compound 73] | 14 nM | 
61 | CC(C)(C)c1nc(C2CC2)sc1Oc1ccnc(Nc2ccnc(C(C)(C)O)c2)c1 [Compound 75] | 6690 nM | 
62 | CC(C)c1nc(C2CCOCC2)c(Oc2ccnc(Nc3ccnc(C(C)(C)O)c3)c2)s1 [Compound 76] | 90 nM | 
63 | CC(C)(O)c1cc(Nc2cc(Oc3cn(C4CC4)nc3C3CCC(F)(F)CC3)ccn2)ccn1 [Compound 77] |  | 39000 nM
64 | CC(C)(O)c1cc(Nc2cc(Oc3cn(C4CC4)nc3C(=O)Nc3ccccc3F)ccn2)ccn1 [Compound 80] | 57 nM | 
